Patent US10149887B2, “Peptides and peptidomimetics in combination with t cell activating and/or checkpoint inhibiting agents for cancer treatment” (CanBas Co., Ltd., priority 2015, dated 2018)
Like-named read-outs stand apart in the source and are kept apart here. Square brackets hold non-standard residues; d marks the D form. Ends that are not written are not given here. Peptide text beside a SMILES is read from it. dPhe(4-NO2) = N[C@H](Cc1ccc([N+](=O)[O-])cc1)C(=O)O; dPhe(F5) = N[C@H](Cc1c(F)c(F)c(F)c(F)c1F)C(=O)O; dBpa = N[C@H](Cc1ccc(C(=O)c2ccccc2)cc1)C(=O)O; dCha = N[C@H](CC1CCCCC1)C(=O)O

What was measured:
Jurkat cells [1] = test: G2 checkpoint abrogation, flow cytometry of bleomycin treated Jurkat cells; format: cell-based, human; settings: for G2 abrogating dose: dose with 40 μg/ml bleomycine giving detectable G2 checkpoint abrogation, 24 hours; for G2 checkpoint abrogating activity (in words): Jurkat cells with bleomycin 40 μg/ml
Description: Flow cytometry analysis of G2 checkpoint abrogation was performed using human leukemia derived Jurkat cell line. In brief, cultured cells were treated with various doses of peptide/peptidomimetic and 40 μg/ml bleomycine for 24 hr. The DNA of the cells was stained with propidium iodide and analyzed by flow cytometry.
The G2 checkpoint abrogating activity of various arginine rich sequences at different doses on cells treated with bleomycine was studied. Briefly, peptides were added to culture medium of Jurkat cells with bleomycin (40 μg/ml) at 0.2 μg/ml, 0.39 μg/ml, 0.78 μg/ml, 1.56 μg/ml, 3.125 μg/ml, 6.25 μg/ml, 12.5 μg/ml, 25 μg/ml and 50 μg/ml. Cells were subsequently harvested after 24 hours, stained with Krishan's solution, and analyzed with flow cytometry as previously described.

Jurkat cells [2] = test: M phase checkpoint abrogation / non specific toxicity, colchicine treated Jurkat cells; format: cell-based; settings: dose with 5 μg/ml colchicine that produced Jurkat cell cycle disturbance, 24 hours
Description: Flow cytometry analysis of M phase checkpoint abrogation by the compounds was performed using human T cell leukemia Jurkat cell line treated with colchicine (5 μg/ml or 0.5 μg/ml) and various doses of peptide/peptidomimetics for 24 hr (FIG. 12). The DNA of the cells was stained and analyzed by flow cytometry as described above.
(§1) The “Appearance of side effect when used alone” indicates the peptide/peptidomimetic dose that produced Jurkat cell cycle disturbance, i.e., the appearance of significant amounts of SubG1 cells (dead cells) or cells in which the DNA content of each varies more than usual. […] The “G2 abrogating dose” indicates the peptide/peptidomimetic dose with 40 μg/ml bleomycine that produced detectable G2 checkpoint abrogation activity following treatment for 24 hours. The “Appearance of side effect when used with colchicine” indicates the peptide/peptidomimetic dose with 5 μg/ml colchicine that produced Jurkat cell cycle disturbance following treatment for 24 hours.
A comparison between G2 checkpoint abrogating activity and non specific toxicity (M checkpoint abrogation) by CB501 was performed. In brief, Jurkat cells were treated with 40 μg/ml bleomycin or 0.5 μg/ml colchicine for G2 checkpoint abrogating activity and non specific toxicity, respectively. The DNA amount in each of the treated cells was analyzed by flow cytometry, as previously described.

[3] = Human serum treatment analysis (residual G2 checkpoint abrogating activity); format: in vitro ADME; settings: 37 degrees
Description: Serum analysis was performed to determine the stability of peptides in mouse and human serum. Briefly, peptides (10 mM or 2.5 mM) were incubated with freshly prepared human serum at 37 degrees for 1 hr. […] Jurkat cells were treated with the serum with or without peptides and bleomycin (40 μg/ml) and incubated for 24 hr. The population of G2 phase cells was determined by flow cytometry as previously described. The residual G2 checkpoint abrogating activity of serum treated peptides were determined by comparing the % G2 cells of the treated serum and the standard curve produced with medium treated peptides, bleomycin and Jurkat cells (Table 5A).

Jurkat cells [4] = test: Side effect of peptide used alone: Jurkat cell cycle disturbance (flow cytometry); format: cell-based; settings: dose that produced Jurkat cell cycle disturbance, peptide alone
Description: Cell-cycle analysis The cell cycle status of the cells treated with bleomycin or adriamcin were analyzed by flow cytometry as described by Kawabe (1997) Nature 385:454-458. In brief, two million cells were re-suspended and incubated in 200 μl Krishan's solution (0.1% Sodium citrate, 50 μg/ml PI, 20 μg/ml RNase A and 0.5% NP-40) for 1 hr at 4° C. and analyzed by a flow cytometry, FACScan™ (Beckton Dickinson, Mountain View, Calif.) with the program CELLQuest™ (Beckton Dickinson).
as §1

[5] = molecular target: T1, recombinant human full length Chk1 (Homo sapiens, UniProt O14757); test: In vitro kinase inhibition (CycLex), phosphorylation of serine 216 on GST-Cdc25C; format: biochemical
T1 construct: baculovirus derived recombinant human full length Chk1 with histidine tag; histidine tag; host or cells: baculovirus system (insect cells) for Chk1; E. coli for the GST-Cdc25C substrate
T1 sequence (O14757 1-476): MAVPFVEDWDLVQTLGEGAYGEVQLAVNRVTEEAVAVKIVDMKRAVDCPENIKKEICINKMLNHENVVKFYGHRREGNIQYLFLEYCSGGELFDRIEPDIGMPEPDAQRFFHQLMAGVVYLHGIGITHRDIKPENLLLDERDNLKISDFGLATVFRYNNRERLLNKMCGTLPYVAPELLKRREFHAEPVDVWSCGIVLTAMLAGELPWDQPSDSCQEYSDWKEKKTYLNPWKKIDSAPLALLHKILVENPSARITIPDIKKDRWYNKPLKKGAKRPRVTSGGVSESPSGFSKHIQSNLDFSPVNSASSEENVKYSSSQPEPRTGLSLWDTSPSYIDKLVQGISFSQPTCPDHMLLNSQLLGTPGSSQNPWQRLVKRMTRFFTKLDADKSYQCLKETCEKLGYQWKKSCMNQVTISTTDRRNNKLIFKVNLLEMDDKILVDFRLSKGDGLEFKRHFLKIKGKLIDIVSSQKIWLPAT
Description: (§2) In vitro kinase inhibition analysis was performed by CycLex, Co. Ltd., Nagano, Japan. Briefly, baculovirus derived recombinant human full length Chk1 with histidine tag or E. Coli derived recombinant human full length Chk2 fused with GST were used as kinases. E. Coli derived recombinant GST-Cdc25C (amino acis 167-267) was used as a substrate. Reaction conditions were 20 mM Hepes-KOH (pH7.5), 1 mM DTT, 80 μg/ml BSA, 10 mM MgCl2 and […] at 30 degree for 60 min. The phosphorylation of serine 216 on GST-Cdc25C was detected by anti-Cdc25C-phosphorylated 5216 antibody with enzyme linked immune assay.

[6] = molecular target: T2, recombinant human full length Chk2 (Homo sapiens, UniProt O96017); test: as above; format: biochemical
T2 construct: E. Coli derived recombinant human full length Chk2 fused with GST; host or cells: E. coli
T2 sequence (O96017 whole entry, the tested form may be a part): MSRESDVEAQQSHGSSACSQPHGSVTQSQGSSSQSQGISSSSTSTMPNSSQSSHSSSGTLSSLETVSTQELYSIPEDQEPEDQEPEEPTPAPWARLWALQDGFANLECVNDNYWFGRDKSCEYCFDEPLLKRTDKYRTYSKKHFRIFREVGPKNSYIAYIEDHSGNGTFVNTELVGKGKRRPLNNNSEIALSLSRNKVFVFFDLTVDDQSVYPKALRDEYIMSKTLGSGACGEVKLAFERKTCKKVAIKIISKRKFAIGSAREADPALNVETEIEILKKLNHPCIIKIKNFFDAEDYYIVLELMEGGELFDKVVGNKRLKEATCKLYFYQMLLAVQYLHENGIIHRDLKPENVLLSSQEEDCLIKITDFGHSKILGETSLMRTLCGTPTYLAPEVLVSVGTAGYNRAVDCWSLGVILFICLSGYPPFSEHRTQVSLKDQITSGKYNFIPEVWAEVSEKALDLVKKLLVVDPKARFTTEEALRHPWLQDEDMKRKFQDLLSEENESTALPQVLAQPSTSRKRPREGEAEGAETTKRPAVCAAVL
Description: as §2

MIAPaCa2 = settings: three hours exposure
Description: The medium was changed and incubated an additional 24, 48 or 72 hour. Following incubation, 20 μl of alamarBlue 90% reagent was added to each well for another 6 hours for detection of cell viability by fluorescent intensity. Fluorescent intensity was measured using a Spectrafluor Plus plate reader with exitation 530 nm and emission 590 nm. The IC50 was calculated (Table 6).

CT26WT = CT26WT s.c. syngeneic tumor model in Balb/c mice (Example 9); format: in vivo, mouse; settings: CDDP 5 mg/kg, CBP501 7.5 mg/kg, anti-mPD1 200 ug, 3 dosing cycles
Description: Relative sizes of tumors were plotted versus the number of days after initiation of the treatment.
All animal studies were conducted according to the protocols approved by the institutional animal care committee of CanBas Co. Ltd. Six-week-old female Balb/c mice (Charles River Laboratories Japan Inc.) were inoculated subcutaneously in the flank with a suspension of CT26WT (5×10^5 cells). […] Tumor volumes, measured thrice weekly with a pair of calipers, were calculated with the following formula: volume (mm^3)=[width (mm)]^2×length (mm)/2. Growth curves after treatment were generated by plotting the mean+/−SE of tumor sizes.
Treatments were initiated when tumor size were reached (˜100 mm^3).

With N=C(N)NCCC[C@H](NC(=O)CNC(=O)[C@@H](N)Cc1ccc(O)cc1)C(=O)N[C@@H](CCCCN)C(=O)N[C@@H](CCCCN)C(=O)N[C@@H](CCCNC(=N)N)C(=O)N[C@@H](CCCNC(=N)N)C(=O)N[C@@H](CCC(N)=O)C(=O)N[C@@H](CCCNC(=N)N)C(=O)N[C@@H](CCCNC(=N)N)C(=O)N[C@@H](CCCNC(=N)N)C(=O)N[C@@H](CC1CCCCC1)C(=O)N[C@@H](Cc1c(F)c(F)c(F)c(F)c1F)C(=O)N[C@@H](CCCNC(=N)N)C(=O)N[C@@H](CO)C(=O)N1CCC[C@H]1C(=O)N[C@@H](CO)C(=O)N[C@@H](Cc1ccc(O)cc1)C(=O)N[C@@H](Cc1ccc(O)cc1)C(=O)O [CBP413, (1-Tyr)(1-Gly)(1-Arg)(1-Lys)(1-Lys)(1-Arg)(1-Arg)(1-Gln)(1-Arg)(1-Arg)(1-Arg)(1-Cha)(1-Phe-2,3,4,5,6-F)(1-Arg)(1-Ser)(1-Pro)(1-Ser)(1-Tyr)(1-Tyr)] the G2 abrogating dose (Jurkat cells [1]) was no less than 1.56 µM, the “Appearance of side effect when used with Colchicine” value (Jurkat cells [2]) was greater than 25 µM and the “Residual activity of peptide after 1 hr human serum treatment” value [3] was <0.4% of original. For the same molecule, the “Appearance of side effect when used alone” value (Jurkat cells [4]) was greater than 25 µM.
N=C(N)NCCC[C@@H](NC(=O)[C@@H](CCCNC(=N)N)NC(=O)[C@@H](CCC(N)=O)NC(=O)[C@@H](CCCNC(=N)N)NC(=O)[C@@H](CCCNC(=N)N)NC(=O)[C@@H](CCCNC(=N)N)NC(=O)[C@@H](CC1CCCCC1)NC(=O)[C@@H](Cc1c(F)c(F)c(F)c(F)c1F)NC(=O)[C@@H](CO)NC(=O)[C@@H](Cc1c[nH]c2ccccc12)NC(=O)[C@@H](CO)NC(=O)[C@@H](Cc1ccc(C(=O)c2ccccc2)cc1)NC(=O)[C@H](N)Cc1ccc(O)cc1)C(=O)O [CBP500, (d-Tyr)(d-Bpa)(d-Ser)(d-Trp)(d-Ser)(d-Phe-2,3,4,5,6-F)(d-Cha)(d-Arg)(d-Arg)(d-Arg)(d-Gln)(d-Arg)(d-Arg)] (H-[dY][dBpa][dS][dW][dS][dPhe(F5)][dCha][dR][dR][dR][dQ][dR][dR]-OH; N-terminus and C-terminus assumed) gave a G2 abrogating dose (Jurkat cells [1]) of no less than 0.39 µM, an IC50 [5] of 5.6 µM and an IC50 [6] of 8 µM. For the same molecule, the “Appearance of side effect when used with Colchicine” value (Jurkat cells [2]) was greater than 12.5 µM and the “Appearance of side effect when used alone” value (Jurkat cells [4]) was greater than 50 µM.
For N=C(N)NCCC[C@@H](NC(=O)[C@@H](CCCNC(=N)N)NC(=O)[C@@H](CCC(N)=O)NC(=O)[C@@H](CCCNC(=N)N)NC(=O)[C@@H](CCCNC(=N)N)NC(=O)[C@@H](CCCNC(=N)N)NC(=O)[C@@H](CC1CCCCC1)NC(=O)[C@@H](Cc1c(F)c(F)c(F)c(F)c1F)NC(=O)[C@@H](CO)NC(=O)[C@@H](Cc1c[nH]c2ccccc12)NC(=O)[C@@H](CO)NC(=O)[C@@H](CC(=O)O)NC(=O)[C@H](N)Cc1ccc(C(=O)c2ccccc2)cc1)C(=O)O [CBP505, (d-Bpa)(d-Asp)(d-Ser)(d-Trp)(d-Ser)(d-Phe-2,3,4,5,6-F)(d-Cha)(d-Arg)(d-Arg)(d-Arg)(d-Gln)(d-Arg)(d-Arg)] (H-[dBpa][dD][dS][dW][dS][dPhe(F5)][dCha][dR][dR][dR][dQ][dR][dR]-OH; N-terminus and C-terminus assumed), the IC50 [5] was 63.4 µM and the IC50 [6] was greater than 100 µM.
With N=C(N)NCCC[C@@H](NC(=O)[C@@H](CCCNC(=N)N)NC(=O)[C@@H](CCC(N)=O)NC(=O)[C@@H](CCCNC(=N)N)NC(=O)[C@@H](CCCNC(=N)N)NC(=O)[C@@H](CCCNC(=N)N)NC(=O)[C@@H](CC1CCCCC1)NC(=O)[C@@H](Cc1ccc([N+](=O)[O-])cc1)NC(=O)[C@@H](CO)NC(=O)[C@@H](Cc1c[nH]c2ccccc12)NC(=O)[C@@H](CO)NC(=O)[C@H](N)Cc1ccc(C(=O)c2ccccc2)cc1)C(=O)O [CBP603, (d-Bpa)(d-Ser)(d-Trp)(d-Ser)(d-Phe4No2)(d-Cha)(d-Arg)(d-Arg)(d-Arg)(d-Gln)(d-Arg)(d-Arg)] (H-[dBpa][dS][dW][dS][dPhe(4-NO2)][dCha][dR][dR][dR][dQ][dR][dR]-OH; N-terminus and C-terminus assumed) the IC50 [5] was 15.5 µM, the IC50 [6] was 18.1 µM and the “Residual activity of peptide after 1 hr human serum treatment” value [3] was >50% of original.
With N.N.[Cl][Pt][Cl] [cisplatin, cis-diamminodichloroplatinum, reference compound] the IC50 (MIAPaCa2; read-out: IC50 24 hr, additional 24 hour) was 16 µM, the IC50 (MIAPaCa2; read-out: IC50 48 hr, additional 48 hour) was 31 µM and the IC50 (MIAPaCa2; read-out: IC50 72 hr, additional 72 hour) was 46 µM. The “Reduction of tumor growth as compared to vehicle-treated mice” value (CT26WT) was 52.7%.
With “(d-Arg)(d-Arg)(d-Arg)(d-Bpa)(d-Arg)(d-Trp)(d-Arg)(d-Phe-2,3,4,5,6-F)(d-Cha) ([dR][dR][dR][dBpa][dR][dW][dR][dPhe(F5)][dCha]) [CBP701]” the “G2 checkpoint abrogating activity (in words)” value (Jurkat cells [1]) was “retain G2 checkpoint abrogating activity comparable to other peptides having significant G2 checkpoint abrogating activity”.
In the case of “(d-Arg)(d-Arg)(d-Bpa)(d-Arg)(d-Arg)(d-Arg)(d-Phe-2,3,4,5,6-F)(d-Cha) ([dR][dR][dBpa][dR][dR][dR][dPhe(F5)][dCha]) [CBP700]”, the “G2 checkpoint abrogating activity (in words)” value (Jurkat cells [1]) is reported as “retain G2 checkpoint abrogating activity comparable to other peptides having significant G2 checkpoint abrogating activity”.
